Assay results reported in patent publication US9730445B2, “Herbicidal compositions comprising 4-amino-3-chloro-5-fluoro-6-(4-chloro-2-fluoro-3-methoxyphenyl) pyridine-2-carboxylic acid or a derivative thereof and fungicides” (DOW AGROSCIENCES LLC, priority 2013, dated 2017).
Values joined by “and” are separate entries in the source; they are usually repeats but may differ in a detail not shown here. Equal values may be shown once.

Columns and labels:
Assay in all cases: Postemergence foliar-applied weed control, direct-seeded rice (greenhouse)
DIGSA = format: in vivo, Digitaria sanguinalis (L.) Scop. (large crabgrass)
ECHCO = format: in vivo, Echinochloa colonum (L.) LINK (junglerice)
From the text: (§1) Seeds or nutlets of the desired test plant species were planted in a soil matrix prepared by mixing aloam or sandy loam soil (e.g., 28.6 percent silt, 18.8 percent clay, and 52.6 percent sand, with a pH of about 5.8 and an organic matter content of about 1.8 percent) and calcareous grit in an 80 to 20 ratio. The soil matrix was contained in plastic pots with a volume of 1 quart and a surface area of 83.6 square centimeters (cm^2). When required to ensure good germination and healthy plants, a fungicide treatment and/or other chemical or physical treatment was applied. The plants were grown for 8-22 days in a greenhouse with an approximate 14 hour (h) photoperiod which was maintained at about 29° C. during the day and 26° C. during the night. Nutrients (Peters Excel® 15-5-15 5-Ca 2-Mg and iron chelate) were applied in the irrigation solution as needed and water was added on a regular basis. Supplemental lighting was provided with overhead metal halide 1000-Watt lamps as necessary. The plants were employed for testing when they reached the first through fourth true leaf stage.
(§2) Treatments consisted of the acid or esters of 4-amino-3-chloro-5-fluoro-6-(4-chloro-2-fluoro-3-methoxy-phenyl)pyridine-2-carboxylic acid (Compound A), each formulated as an SC (suspension concentrate), and various fungicidal components alone and in combination. Forms of compound A were applied on an acid equivalent basis.
Treatment requirements were calculated based upon the rates being tested, the concentration of active ingredient or acid equivalent in the formulation and a 12 milliliter (mL) application volume at a rate of 187 liters per hectare (L/ha).
For treatments comprised of formulated compounds, measured amounts of compounds were placed individually in 25 mL glass vials and diluted in a volume of 1.25% volume per volume (v/v) Agri-Dex® crop oil concentrate to obtain 12× stock solutions. […] Application solutions were prepared by adding an appropriate amount of each stock solution (e.g., 1 mL) and diluted to the appropriate final concentrations with the addition of […] of an aqueous mixture of 1.25% (v/v) crop oil concentrate so that the final spray solutions contained 1.25+/−0.05% (v/v) crop oil concentrate.
For treatments comprised of technical compounds, weighed amounts can be placed individually in 25 mL glass vials and dissolved in a volume of 97:3 volume per volume (v/v) acetone/dimethyl sulfoxide (DMSO) to obtain 12× stock solutions. […] When technical materials are used, the concentrated stock solutions can be added to the spray solutions so that the final acetone and DMSO concentrations of the application solutions are 16.2% and 0.5%, respectively.
As required, additional water and/or 97:3 v/v acetone/DMSO was added to individual application solutions so that the final acetone and DMSO concentrations of the application solutions being compared were 8.1% and 0.25%, respectively
All stock solutions and applications solutions were visually inspected for compound compatibility prior to application. Spray solutions were applied to the plant material with an overhead Mandel track sprayer equipped with 8002E nozzles calibrated to deliver 187 L/ha over an application area of 0.503 square meters (m^2) at a spray height of 18 to 20 inches (46 to 50 cm) above average plant canopy height. Control plants were sprayed in the same manner with the solvent blank.
(§3) The treated plants and control plants were placed in a greenhouse as described above and watered by sub-irrigation to prevent wash-off of the test compounds. After approximately 3 weeks, the condition of the test plants as compared with that of the untreated plants was determined visually and scored on a scale of 0 to 100 percent where 0 corresponds to no injury or growth inhibition and 100 corresponds to complete kill. […]

ECHCG = format: in vivo, Echinochloa crus-galli (L.) P. Beauv. (barnyardgrass)
ECHOR = format: in vivo, Echinochloa oryzoides (Ard.) Fritsch (early watergrass); settings: r78-80 ester 8/16/32 g ae/ha alone, r81-83 difenoconazole 50/100/200 g ai/ha alone, r84-92 ester 8/16/32 at each of 50, 100, 200
Method: as §1, with “When required to ensure good germination and healthy plants, a fungicide treatment and/or other chemical or physical treatment was applied.” left out
as §2
For treatments comprised of formulated compounds, measured amounts of compounds were placed individually in 25 mL glass vials and diluted in a volume of 1.25% volume per volume (v/v) Agri-Dex® crop oil concentrate to obtain 12× stock solutions. […]
as §3

IPOHE = format: in vivo, Ipomoea hederacea (L.) Jacq. (ivyleaf morningglory); settings: r10-12 ester 4.38/8.75/17.5 g ae/ha alone, r13 difenoconazole 200 g ai/ha alone, r14-16 ester 4.38/8.75/17.5 + 200
[1] = r9-11 ester 8/16/32 g ae/ha alone, r12-14 hexaconazole 25/50/100 g ai/ha alone, r15-23 ester 8/16/32 at each of 25, 50, 100
[2] = r38-39 ester 8/16 g ae/ha alone, r40 isotianil 380 g ai/ha alone, r41-42 ester 8/16 + 380

COc1c(Cl)ccc(-c2nc(C(=O)OCc3ccccc3)c(Cl)c(N)c2F)c1F [Compound A Benzyl Ester]
Visual Weed Control (%)—20 DAA DIGSA Obs (DIGSA; 20 DAA, r21-23 ester 8/16/32 g ae/ha alone, r24-25 isotianil 100/200 g ai/ha alone, r26-31 ester 8/16/32 at each of 100, 200): 20% and 30% and 40% | Visual Weed Control (%)—21 DAA DIGSA Obs (DIGSA; 21 DAA, r38-39 ester 8/16 g ae/ha alone, r40 isotianil 380 g ai/ha alone, r41-42 ester 8/16 + 380): 15% and 25% | Visual Weed Control (%) - 22 DAA DIGSA Obs (DIGSA; 22 DAA, r22-24 ester 8/16/32 g ae/ha alone, r25-27 difenoconazole 50/100/200 g ai/ha alone, r28-36 ester 8/16/32 at each of 50, 100, 200): 15% and 23% and 28% | Visual Weed Control (%) - 19 DAA ECHCO Obs (ECHCO; r9-11 ester 8/16/32 g ae/ha alone, r12-13 carbendazim 125/250 g ai/ha alone, r14-19 ester 8/16/32 at each of 125, 250): 90% and 95% and 65% | Visual Weed Control (%) - 19 DAA ECHCO Obs (ECHCO; r9-11 ester 8/16/32 g ae/ha alone, r12-13 flutolanil 280/560 g ai/ha alone, r14-19 ester 8/16/32 at each of 280, 560): 90% and 95% and 65% | Visual Weed Control (%)—21 DAA ECHCO Obs (ECHCO; [1]): 65% and 85% and 50% | Visual Weed Control (%)—21 DAA ECHCO Obs (ECHCO; [2]): 50% and 65% | Visual Weed Control (%)—21 DAA ECHCG Obs (ECHCG; [1]): 85% and 90% and 45% | Visual Weed Control (%)—21 DAA ECHCG Obs (ECHCG; [2]): 45% and 85% | Visual Weed Control (%) - 21 DAA ECHCG Obs (ECHCG; r58-60 ester 8/16/32 g ae/ha alone, r61-63 difenoconazole 50/100/200 g ai/ha alone, r64-72 ester 8/16/32 at each of 50, 100, 200): 70% and 60% and 90% | Visual Weed Control (%) - 21 DAA ECHOR Obs (ECHOR): 45% and 43% and 70% | Visual Weed Control (%) - 21 DAA IPOHE Obs (IPOHE): 10% and 20%
